Test: Ten day DIO mouse food intake and body weight study
Type: in vivo
Conditions: 10-day, DIO mice
Experimental: Male, 14 week old C57/Bl6/6J mice which had been maintained on a high fat diet (45% kcal from fat) for 6 weeks were selected for the DIO weight loss study. The animals body weights ranged at least 5 standard deviations from age-matched chow-fed control animals mean body weight. Mice were singly housed. The mean starting weight of all animals was 38.9 ± 0.5 g. On Day 0, mice were randomly assigned to treatment groups (n = 10 per group). Mice were dosed daily over 10 days, starting approximately at 30 minutes before the start of the 12 hr dark cycle. BW and food intake were recorded daily.
DIO mice were treated once daily with veh. (0.5% MC) or CE-178253 at 1 mg/kg or 3 mg/kg, p.o., in a 10-day study (Figures 8A and 8B). […] The lower dose of CE-178253 (1 mg/kg, p.o.) provided for a non-significant 8% reduction in FI, whereas the 3 mg/kg dose led to a significant 31% reduction in cumulative FI. As with other CB1 receptor antagonists, the food intake reduction was maximal over the first five days and declined over time (Figure 8A). However, FI reductions were still evident on the final day of dosing at the high dose. […] The high dose group (3 mg/kg) lost, on average 18% BW.

For `CCNC1(C(N)=O)CN(c2nc(C)nc3c(-c4ccc(Cl)cc4)c(-c4ccccc4Cl)nn23)C1` [CE-178253], the “Reduction in cumulative FI” value (1 mg/kg p.o. once daily, non-significant) was 8%, the “BW lost, on average” value (3 mg/kg p.o. once daily) was 18% and the “Reduction in cumulative FI” value (3 mg/kg p.o. once daily, significant) was 31%.
